Assay results: patent US20080274149A1, “Encapsulation and Controlled Release of Biologically Active Ingredients with Enzymatically Degradable Microparticulate, Hyperbranched Polymers” (priority 2005, published 2008)

Assay: Stability in formulation: creatine in oil-in-water emulsion stored at 45° C.
Assay type: physicochemical
Description: 1.5% of the microcapsules from Example 4 were stirred into an oil-in-water emulsion and stored at T=45° C.

Structure (SMILES): CN(CC(=O)O)C(=N)N [Free creatine, creatine]
- creatine [%] (0 weeks): 100%
- creatine [%] (stored at T=45° C., 5 weeks): 40%
